Measured values published in article PMC6199744, “Development of Chemical Proteomics for the Folateome and Analysis of the Kinetoplastid Folateome” (ACS Infectious Diseases, 2018).
Read-outs that look alike come from different tables or passages of the source.

Assays:
Assay type in all cases: binding
[1] = target: T1, HeLa cell extract proteins (Homo sapiens, UniProt O00764)
T1 construct: endogenous in cells; host or cells: HeLa cell extract
T1 sequence (O00764 1-312): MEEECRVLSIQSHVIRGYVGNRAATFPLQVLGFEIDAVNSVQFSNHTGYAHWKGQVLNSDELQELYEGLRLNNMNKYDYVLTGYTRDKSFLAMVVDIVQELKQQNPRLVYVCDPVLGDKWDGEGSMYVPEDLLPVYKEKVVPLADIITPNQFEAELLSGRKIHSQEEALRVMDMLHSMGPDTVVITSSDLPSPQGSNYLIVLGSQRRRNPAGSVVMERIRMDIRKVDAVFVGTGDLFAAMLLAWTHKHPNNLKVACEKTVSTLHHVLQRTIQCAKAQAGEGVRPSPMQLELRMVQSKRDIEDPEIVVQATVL

[2] = target: T2, HeLa cell extract proteins (Homo sapiens, UniProt Q8IYS1)
T2 construct: endogenous in cells; host or cells: HeLa cell extract
T2 sequence (Q8IYS1 1-436): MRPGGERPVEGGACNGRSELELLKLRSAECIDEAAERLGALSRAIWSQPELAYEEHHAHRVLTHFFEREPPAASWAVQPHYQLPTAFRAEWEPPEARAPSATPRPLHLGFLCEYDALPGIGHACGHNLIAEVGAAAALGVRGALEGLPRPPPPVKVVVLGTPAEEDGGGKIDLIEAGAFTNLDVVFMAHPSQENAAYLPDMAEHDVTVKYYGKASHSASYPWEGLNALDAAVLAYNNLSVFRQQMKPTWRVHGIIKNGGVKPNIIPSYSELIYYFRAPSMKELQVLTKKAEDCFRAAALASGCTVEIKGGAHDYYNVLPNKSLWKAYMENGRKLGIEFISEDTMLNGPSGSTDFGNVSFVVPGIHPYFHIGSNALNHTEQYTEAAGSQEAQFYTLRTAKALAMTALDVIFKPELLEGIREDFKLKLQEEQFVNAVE

[3] = target: T3, HeLa cell extract proteins (Homo sapiens, UniProt P22695)
T3 construct: endogenous in cells; host or cells: HeLa cell extract
T3 sequence (P22695 15-453): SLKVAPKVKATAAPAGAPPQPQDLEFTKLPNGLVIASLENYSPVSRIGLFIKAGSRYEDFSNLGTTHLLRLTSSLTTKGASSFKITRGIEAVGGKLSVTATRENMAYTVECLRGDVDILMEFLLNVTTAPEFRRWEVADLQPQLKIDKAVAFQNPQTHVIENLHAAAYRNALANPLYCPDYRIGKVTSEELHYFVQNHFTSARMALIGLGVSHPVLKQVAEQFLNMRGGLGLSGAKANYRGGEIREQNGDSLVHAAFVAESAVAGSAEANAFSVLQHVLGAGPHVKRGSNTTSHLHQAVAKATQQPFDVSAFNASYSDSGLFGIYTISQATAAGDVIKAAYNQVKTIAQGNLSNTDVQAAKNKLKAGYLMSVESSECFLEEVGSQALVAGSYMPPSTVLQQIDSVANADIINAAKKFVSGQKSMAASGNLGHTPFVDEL

[4] = target: T4, HeLa cell extract proteins (Homo sapiens, UniProt Q05048)
T4 construct: endogenous in cells; host or cells: HeLa cell extract
T4 sequence (Q05048 1-431): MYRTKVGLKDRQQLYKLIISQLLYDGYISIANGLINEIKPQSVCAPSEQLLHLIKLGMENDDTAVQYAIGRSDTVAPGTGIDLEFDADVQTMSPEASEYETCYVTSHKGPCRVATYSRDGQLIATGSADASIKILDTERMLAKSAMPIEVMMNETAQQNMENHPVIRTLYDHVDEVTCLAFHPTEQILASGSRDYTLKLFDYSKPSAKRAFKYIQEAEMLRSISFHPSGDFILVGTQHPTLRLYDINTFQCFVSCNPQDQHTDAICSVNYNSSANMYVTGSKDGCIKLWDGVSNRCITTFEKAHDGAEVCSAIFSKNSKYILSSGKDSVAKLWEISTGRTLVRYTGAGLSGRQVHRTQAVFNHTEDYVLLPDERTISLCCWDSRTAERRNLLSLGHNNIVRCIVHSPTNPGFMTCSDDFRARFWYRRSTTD

[5] = target: T5, HeLa cell extract proteins (Homo sapiens, UniProt P56192)
T5 construct: endogenous in cells; host or cells: HeLa cell extract
T5 sequence (P56192 1-900): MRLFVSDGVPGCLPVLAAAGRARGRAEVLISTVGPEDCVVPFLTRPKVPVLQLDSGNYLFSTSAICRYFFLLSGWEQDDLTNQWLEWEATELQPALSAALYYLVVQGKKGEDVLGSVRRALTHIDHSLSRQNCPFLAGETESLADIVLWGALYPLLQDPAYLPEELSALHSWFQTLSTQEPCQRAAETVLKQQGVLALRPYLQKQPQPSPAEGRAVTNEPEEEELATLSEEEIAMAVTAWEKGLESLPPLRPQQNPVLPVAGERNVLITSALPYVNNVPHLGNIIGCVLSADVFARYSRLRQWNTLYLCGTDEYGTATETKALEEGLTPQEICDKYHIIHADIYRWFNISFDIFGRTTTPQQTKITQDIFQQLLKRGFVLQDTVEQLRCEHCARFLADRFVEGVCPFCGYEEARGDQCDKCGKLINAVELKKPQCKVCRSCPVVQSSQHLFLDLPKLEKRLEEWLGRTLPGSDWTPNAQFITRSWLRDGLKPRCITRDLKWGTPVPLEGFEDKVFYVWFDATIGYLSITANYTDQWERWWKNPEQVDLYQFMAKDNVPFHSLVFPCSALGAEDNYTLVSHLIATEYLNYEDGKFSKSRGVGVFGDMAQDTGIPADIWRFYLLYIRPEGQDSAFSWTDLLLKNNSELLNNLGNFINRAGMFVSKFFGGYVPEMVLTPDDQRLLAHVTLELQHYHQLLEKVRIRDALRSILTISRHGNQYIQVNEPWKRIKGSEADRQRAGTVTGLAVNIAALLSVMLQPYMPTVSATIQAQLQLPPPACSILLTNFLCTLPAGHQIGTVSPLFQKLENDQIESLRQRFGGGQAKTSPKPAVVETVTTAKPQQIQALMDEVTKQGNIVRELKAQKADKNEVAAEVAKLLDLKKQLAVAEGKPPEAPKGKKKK

[6] = target: T6, HeLa cell extract proteins (Homo sapiens, UniProt P62195)
T6 construct: endogenous in cells; host or cells: HeLa cell extract
T6 sequence (P62195 whole entry): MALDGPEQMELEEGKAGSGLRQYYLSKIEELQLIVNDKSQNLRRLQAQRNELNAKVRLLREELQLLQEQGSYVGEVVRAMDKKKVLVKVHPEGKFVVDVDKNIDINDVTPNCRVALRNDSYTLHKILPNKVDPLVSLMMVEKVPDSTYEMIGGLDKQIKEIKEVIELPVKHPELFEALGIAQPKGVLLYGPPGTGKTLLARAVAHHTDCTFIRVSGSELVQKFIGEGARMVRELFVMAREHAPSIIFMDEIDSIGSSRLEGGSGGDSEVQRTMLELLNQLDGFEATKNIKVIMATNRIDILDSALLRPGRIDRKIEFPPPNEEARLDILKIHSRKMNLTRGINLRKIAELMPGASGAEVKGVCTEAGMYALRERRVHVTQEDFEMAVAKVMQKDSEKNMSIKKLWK

Nc1nc2c(c(=O)[nH]1)N(C=O)C(CNc1ccc(C(=O)N[C@@H](CCC(=O)O)C(=O)O)cc1)CN2 (stereo partly drawn) [LEU, leucovorin]
fold changes relative to vehicle control ([1]; protein PDXK, HeLa): 1.09
fold changes relative to vehicle control ([2]; HeLa, protein PM20D2): 0.9
fold changes relative to vehicle control ([3]; HeLa, protein UQCRC2): 0.9
fold changes relative to vehicle control ([4]; HeLa, captured protein CSTF1): 1
fold changes relative to vehicle control ([5]; HeLa, captured protein MARS): 0.92
fold changes relative to vehicle control ([6]; HeLa, protein PSMC5): 1.02

Nc1nc2[nH]cc(CCc3ccc(C(=O)N[C@@H](CCC(=O)O)C(=O)O)cc3)c2c(=O)[nH]1 [PTX, pemetrexed]
fold changes relative to vehicle control [1]: 0.83
fold changes relative to vehicle control [2]: 1
fold changes relative to vehicle control [3]: 0.93
fold changes relative to vehicle control [4]: 0.99
fold changes relative to vehicle control [5]: 0.93
fold changes relative to vehicle control [6]: 1.03

CCCCCCOc1ccc(Cc2cnc(N)nc2N)cc1 [compound 1]
fold changes relative to vehicle control ([1]; HeLa, protein PDXK): 1.03
fold changes relative to vehicle control ([2]; captured protein PM20D2, HeLa): 1.09
fold changes relative to vehicle control ([3]; HeLa, protein UQCRC2): 0.97
fold changes relative to vehicle control ([4]; HeLa, protein CSTF1): 1.05
fold changes relative to vehicle control ([5]; captured protein MARS, HeLa): 0.74
fold changes relative to vehicle control ([6]; protein PSMC5, HeLa): 1.07

CCCCCCOc1cccc(Cc2cnc(N)nc2N)c1 [compound 2]
fold changes relative to vehicle control ([1]; HeLa, protein PDXK): 0.97
fold changes relative to vehicle control ([2]; captured protein PM20D2, HeLa): 0.9
fold changes relative to vehicle control ([3]; HeLa, protein UQCRC2): 0.99
fold changes relative to vehicle control ([4]; HeLa, protein CSTF1): 0.99
fold changes relative to vehicle control ([5]; captured protein MARS, HeLa): 1.07
fold changes relative to vehicle control ([6]; protein PSMC5, HeLa): 1.36

Nc1nc2cccc(-c3ccccc3)c2n1Cc1ccc(Cl)c(Cl)c1 [compound 3]
fold changes relative to vehicle control ([1]; HeLa, protein PDXK): 0.9
fold changes relative to vehicle control ([2]; captured protein PM20D2, HeLa): 1.1
fold changes relative to vehicle control ([3]; HeLa, protein UQCRC2): 1.01
fold changes relative to vehicle control ([4]; HeLa, protein CSTF1): 0.98
fold changes relative to vehicle control ([5]; captured protein MARS, HeLa): 0.93
fold changes relative to vehicle control ([6]; protein PSMC5, HeLa): 1.05

NCCOCCOCC(=O)Nc1nc2ncc(CNc3ccc(C(=O)NC(CCC(=O)O)C(=O)O)cc3)nc2c(=O)[nH]1 (stereo not drawn) [compound 6]
fold changes relative to vehicle control ([1]; protein PDXK, HeLa): 0.87
fold changes relative to vehicle control ([2]; HeLa, protein PM20D2): 1.05
fold changes relative to vehicle control ([3]; HeLa, protein UQCRC2): 0.95
fold changes relative to vehicle control ([4]; HeLa, captured protein CSTF1): 0.88
fold changes relative to vehicle control ([5]; HeLa, captured protein MARS): 1.01
fold changes relative to vehicle control ([6]; HeLa, protein PSMC5): 1.12

NCCCNc1ccc(C(=O)NC(CCC(=O)O)C(=O)O)cc1 (stereo not drawn) [compound 7]
fold changes relative to vehicle control ([1]; protein PDXK, HeLa): 1.03
fold changes relative to vehicle control ([2]; HeLa, protein PM20D2): 0.89
fold changes relative to vehicle control ([3]; HeLa, protein UQCRC2): 1.03
fold changes relative to vehicle control ([4]; HeLa, captured protein CSTF1): 1.02
fold changes relative to vehicle control ([5]; HeLa, captured protein MARS): 0.94
fold changes relative to vehicle control ([6]; HeLa, protein PSMC5): 1.04
